Patent publication US5703087A, “Phenyl indole compounds” (H. Lundbeck A/S, priority 1993, dated 1997)
Structures can show the parent of a compound that is named as a salt. Where two headings read alike, the source gives them in different places.

Key:
[1] = tested on: 5-HT2; assay: Quipazine inhibition (quipazine induced head twitches in rats); assay type: in vivo; details: Rattus norvegicus
Source text: Quipazine is a 5-HT2 agonist, which induces head twitches in rats.

[2] = target: T1, 5-HT2 receptors (Rattus norvegicus, UniProt P14842); assay: Inhibition of 3H-Ketanserin binding to 5-HT2 receptors in membranes from rat cortex in vitro; details: 0,5 nM 3H-ketanserin
T1 construct: 5-HT2 receptors in membranes from rat; from tissue; host or cells: rat cortex membranes
Protocol: Inhibition of ^3 H-Ketanserin Binding To 5-HT2 Receptors in […] Cortex in vitro
By this method the inhibition by drugs of the binding of ^3 H-Ketanserin (0,5 nM) to 5-HT2 receptors in membranes from rat is determined in vitro. The method is described in Hyttel, Pharmacology & Toxicology 61, 126-129, 1987.

[3] = target: T2, dopamine D2 receptors (Rattus norvegicus, UniProt P61169); assay: Inhibition of 3H-Spiperone binding to dopamine D2 receptors in rat corpus striatum in vitro; details: 0.5 nM 3H-spiperone, rat corpus striatum membranes, read-out: Dopamine D2 binding [^3 H]-spiroperidol
T2 construct: dopamine D2 receptors in membranes from rat corpus striatum; from tissue; host or cells: rat corpus striatum membranes
Protocol: Inhibition of ^3 H-Spiperone Binding to Dopamine D2 Receptors in Rat Corpus Striatum in vitro
By this method the inhibition by drugs of the binding of ^3 H-spiperone (0.5 nM) to dopamine D2 receptors in membranes from rat corpus striatum is determined in vitro.

[4] = Catalepsy in rats (vertical wire mesh); details: rat, in vivo, 1-6 hours, sc
Protocol: Evaluation of catalepsy is made according to Arnt (Eur. J. Pharmacol. 90, 47-55 (1983)). Test compound is given s.c. in different doses. The rat (170-240 g) is placed on a vertical wire mesh (mesh diameter 12 mm). The rat is considered cataleptogenic if it remains immobile for more than 15 sec. The maximum number of rats showing catalepsy within the first 6 hours is recorded for each dose group. The results are recorded in fractions and an ED50 value is calculated by means of log-probit analysis.

[5] = in vivo; cited from earlier work
[6] = po, 24 h, read-out: Quipazine inhibition 24 hours (po) ED50
[7] = sc, 2 h, read-out: Quipazine inhibition 2 hours (sc) ED50
[8] = rats, 2 hours, sc, read-out: Quipazine inhibition 2 hours (sc) ED50
[9] = rats, 24 hours, po, read-out: Quipazine inhibition 24 hours (po) ED50

T2 sequence (P61169 whole entry): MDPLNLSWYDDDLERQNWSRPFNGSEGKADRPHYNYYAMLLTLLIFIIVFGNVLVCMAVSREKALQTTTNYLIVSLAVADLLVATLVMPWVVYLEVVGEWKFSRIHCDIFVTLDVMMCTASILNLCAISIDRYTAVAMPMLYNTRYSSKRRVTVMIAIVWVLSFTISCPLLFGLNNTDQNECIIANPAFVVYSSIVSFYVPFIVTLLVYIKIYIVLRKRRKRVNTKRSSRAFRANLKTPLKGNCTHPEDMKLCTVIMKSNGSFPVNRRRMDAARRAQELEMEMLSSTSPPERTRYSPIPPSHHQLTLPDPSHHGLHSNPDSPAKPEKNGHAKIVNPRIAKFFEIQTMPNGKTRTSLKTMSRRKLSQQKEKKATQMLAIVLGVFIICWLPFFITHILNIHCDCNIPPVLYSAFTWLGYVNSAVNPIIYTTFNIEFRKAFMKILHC
T1 sequence (P14842 whole entry): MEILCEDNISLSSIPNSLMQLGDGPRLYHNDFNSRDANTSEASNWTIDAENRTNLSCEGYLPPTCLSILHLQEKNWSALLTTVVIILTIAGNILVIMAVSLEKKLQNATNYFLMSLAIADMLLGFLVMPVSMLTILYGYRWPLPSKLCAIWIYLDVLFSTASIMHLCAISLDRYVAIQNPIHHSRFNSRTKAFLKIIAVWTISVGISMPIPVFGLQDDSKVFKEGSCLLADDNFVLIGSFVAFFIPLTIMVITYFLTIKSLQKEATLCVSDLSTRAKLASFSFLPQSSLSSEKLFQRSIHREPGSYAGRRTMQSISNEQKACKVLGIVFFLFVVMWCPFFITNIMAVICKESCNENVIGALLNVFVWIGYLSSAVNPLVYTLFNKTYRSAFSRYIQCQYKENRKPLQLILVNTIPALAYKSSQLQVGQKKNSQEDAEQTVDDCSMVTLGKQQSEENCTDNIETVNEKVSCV

Compound: O=C1NC2(CCCC2)CN1CCN1CCC(c2cn(-c3ccc(F)cc3)c3ccc(Cl)cc23)CC1 [Compound 12, 3-[2-[4-[5-Chloro-1-(4-fluorophenyl)-1H-indol-3-yl]piperidin-1-yl]ethyl]-1,3-diazaspiro[4.4]nonan-2-one]
- ED50 [1, 6]: 0.037 µmol/kg
- ED50 [1, 7]: 0.076 µmol/kg
- IC50 [2]: 4.7 nM
- IC50 [3]: 19 nM
- ED50 at 6 h [4]: > 40 µmol/kg

Compound: O=C1NCC(O)N1CCN1CCC(c2cn(-c3ccc(F)cc3)c3ccc(Cl)cc23)CC1 (centres unmarked) [Compound 1, 1-[2-[4-[5-chloro-1-(4-fluorophenyl)-1H-indol-3-yl]piperidin-1-yl]ethyl]-5-hydroxyimidazolidin-2-one]
- ED50 [1, 6]: 0.085 µmol/kg
- ED50 [1, 7]: 0.099 µmol/kg
- IC50 [2]: 1.4 nM
- IC50 [3]: 5.5 nM
- ED50 at 6 h [4]: 39 µmol/kg

Compound: O=C1NC(=O)N(CCN2CCC(c3cn(-c4ccc(F)cc4)c4ccc(Cl)cc34)CC2)C1O (centres unmarked) [Compound 7b, 1-[2-[4-[5-chloro-1-(4-fluorophenyl)-1H-indol-3-yl]piperidin-1-yl]ethyl]-5-hydroxyimidazolidin-2,4-dione]
- IC50 [2]: 9.8 nM
- IC50 [3]: 23 nM
- ED50 at 6 h [4]: > 21 µmol/kg

Compound: O=C1NC(O)C(O)N1CCN1CCC(c2cn(-c3ccc(F)cc3)c3ccc(Cl)cc23)CC1 (centres unmarked) [Compound 11, 1-[2-[4-[5-chloro-1-(4-fluorophenyl)-1H-indol-3-yl]piperidin-1-yl]ethyl]-4,5-dihydroxyimidazolidin-2-one]
- IC50 [2]: 2.5 nM
- IC50 [3]: 18 nM

Compound: [2H]C1([2H])CN(CCN2CCC(c3cn(-c4ccc(F)cc4)c4ccc(Cl)cc34)CC2)C(=O)N1 [Compound 5, 1-[2-[4-[5-Chloro-1-(4-fluorophenyl)-1H-indol-3-yl]piperidin-1-yl]ethyl]-4,4-dideuteroimidazolidin-2-one]
- ED50 [1, 8]: 0.055 µmol/kg
- ED50 [1, 9]: 0.0097 µmol/kg
- ED50 at 6 h [4]: > 45 µmol/kg

Compound: O=C1NCC2(CCCC2)N1CCN1CCC(c2cn(-c3ccc(F)cc3)c3ccc(Cl)cc23)CC1 [Compound 13, 1-[2-[4-[5-Chloro-1-(4-fluorophenyl)-1H-indol-3-yl]piperidin-1-yl]ethyl]-1,3-diazaspiro[4.4]nonan-2-one]
- ED50 [1, 6]: 0.45 µmol/kg
- ED50 [1, 7]: 0.088 µmol/kg
- IC50 [2]: 4.5 nM
- IC50 [3]: 30 nM
- ED50 at 6 h [4]: > 40 µmol/kg

Compound: CC1(C)C(=O)NC(=O)N1CCN1CCC(c2cn(-c3ccc(F)cc3)c3ccc(Cl)cc23)CC1 [Compound 10, 1-[2-[4-[5-Chloro-1-(4-fluorophenyl)-1H-indol-3-yl]piperidin-1-yl]ethyl]-5,5-dimethylimidazolidin-2,4-dione]
- ED50 [1, 7]: 0.33 µmol/kg
- IC50 [2]: 12 nM
- IC50 [3]: 20 nM
- ED50 at 6 h [4]: > 30 µmol/kg

Compound: COC1CNC(=O)N1CCN1CCC(c2cn(-c3ccc(F)cc3)c3ccc(Cl)cc23)CC1 (centres unmarked) [Compound 3, 1-[2-[4-[5-chloro-1-(4-fluorophenyl)-1H-indol-3-yl]piperidin-1-yl]ethyl]-5-methoxyimidazolidin-2-one, fumarate]
- IC50 [2]: 1.5 nM
- IC50 [3]: 13 nM
- ED50 at 6 h [4]: 17 µmol/kg

Compound: [2H]C1([2H])CNC(=O)N1CCN1CCC(c2cn(-c3ccc(F)cc3)c3ccc(Cl)cc23)CC1 [Compound 6, 1-[2-[4-[5-Chloro-1-(4-fluorophenyl)-1H-indol-3-yl]piperidin-1-yl]ethyl]-5,5-dideuteroimidazolidin-2-one]
- ED50 [1, 8]: 0.02 µmol/kg
- ED50 [1, 9]: 0.012 µmol/kg
- ED50 at 6 h [4]: 30 µmol/kg

Compound: O=C1NCCN1CCN1CCC(c2cn(-c3ccc(F)cc3)c3ccc(Cl)cc23)CC1 [sertindole, 1-[2-[4-[5-chloro-1-(4-fluorophenyl)-1H-indol-3-yl]piperidin-1-yl]ethyl]-2-imidazolidinone, reference compound]
- anxiolytic activity [5]: found to show anxiolytic activity
- ED50 [1, 8]: 0.035 µmol/kg
- ED50 [1, 9]: 0.039 µmol/kg
- ED50 at 6 h [4]: > 91 µmol/kg

Compound: [2H]C1([2H])NC(=O)N(CCN2CCC(c3cn(-c4ccc(F)cc4)c4ccc(Cl)cc34)CC2)C1([2H])[2H] [Compound 4, 1-[2-[4-[5-Chloro-1-(4-fluorophenyl)-1H-indol-3-yl]piperidin-1-yl]ethyl]-4,4,5,5-tetradeuteroimidazolidin-2-one]
- ED50 [1, 8]: 0.07 µmol/kg
- ED50 [1, 9]: < 0.0056 µmol/kg
- ED50 at 6 h [4]: > 45 µmol/kg

Compound: CC1(C)CNC(=O)N1CCN1CCC(c2cn(-c3ccc(F)cc3)c3ccc(Cl)cc23)CC1 [Compound 9, 1-[2-[4-[5-Chloro-1-(4-fluorophenyl)-1H-indol-3-yl]piperidin-1-yl]ethyl]-5,5-dimethylimidazolidin-2-one]
- ED50 [1, 6]: 0.078 µmol/kg
- ED50 [1, 7]: 0.13 µmol/kg
- IC50 [2]: 1.7 nM
- IC50 [3]: 14 nM
- ED50 at 6 h [4]: > 43 µmol/kg

Compound: CC1(C)CN(CCN2CCC(c3cn(-c4ccc(F)cc4)c4ccc(Cl)cc34)CC2)C(=O)N1 [Compound 8, 1-[2-[4-[5-Chloro-1-(4-fluorophenyl)-1H-indol-3-yl]piperidin-1-yl]ethyl]-4,4-dimethylimidazolidin-2-one]
- ED50 [1, 6]: 0.013 µmol/kg
- ED50 [1, 7]: 0.035 µmol/kg
- IC50 [2]: 2 nM
- IC50 [3]: 18 nM
- ED50 at 6 h [4]: > 43 µmol/kg

Compound: O=C1NC(O)C(=O)N1CCN1CCC(c2cn(-c3ccc(F)cc3)c3ccc(Cl)cc23)CC1 (centres unmarked) [Compound 7a, 1-[2-[4-[5-Chloro-1-(4-fluorophenyl)-1H-indol-3-yl]piperidin-1-yl]ethyl]-4-hydroxyimidazolidin-2,5-dione]
- IC50 [2]: 6.6 nM
- IC50 [3]: 18 nM
- ED50 at 6 h [4]: > 42 µmol/kg
